Data from US20240383905A1, “FGFR INHIBITORS AND METHODS OF USE THEREOF” (3H PHARMACEUTICALS CO., LTD., priority 2021, published 2024).
pIC50: −log10 of the molar value. Like-named read-outs stand apart in the source and are kept apart here.

Tests used:
[1] = Pharmacokinetics in SD Rat; assay type: in vivo, Sprague-Dawley (SD) rat; conditions: male SD rat, plasma
Experimental: Animal studies were done as approved protocols by the Institutional Animal Care and Use Committee at INVIVO Biotech Co., Ltd.
Animal information: Sprague-Dawley (SD) rat, SPF, 6-8 weeks, Male, weight 200-250 g, purchased from Beijing Vital River Lab (Beijing, People's Republic of China).
Formulation: Prepare 1.5 mg/ml and 0.6 mg/ml compound solution in […](20% HPβCD) for PO and IV respectively, dosing immediately after preparation.
Administration: PO and IV;

[2] = system: SNU16 cells; assay: SNU16 Cancer Cell Line Proliferation Assay (CellTiter-Glo); assay type: cell-based; conditions: Homo sapiens, SNU-16, 72 h
Method in brief: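 SNU16 cells at 5000/well exposed to 9-point 3-fold serial compound dilutions (DMSO control) for 72 h at 37 °C, 5% CO2. Viability read by luminescence; IC50 calculated from dose-response.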

[3] = molecular target: T1, FGFR1 (Homo sapiens, UniProt P11362); assay: FGFR1 Biochemical Caliper Assay (KinEASE-TK kit); conditions: ratio FGFR1/FGFR2 of the biochemical assay
T1 construct: purchased Carna 08-133
T1 sequence (P11362 22-822): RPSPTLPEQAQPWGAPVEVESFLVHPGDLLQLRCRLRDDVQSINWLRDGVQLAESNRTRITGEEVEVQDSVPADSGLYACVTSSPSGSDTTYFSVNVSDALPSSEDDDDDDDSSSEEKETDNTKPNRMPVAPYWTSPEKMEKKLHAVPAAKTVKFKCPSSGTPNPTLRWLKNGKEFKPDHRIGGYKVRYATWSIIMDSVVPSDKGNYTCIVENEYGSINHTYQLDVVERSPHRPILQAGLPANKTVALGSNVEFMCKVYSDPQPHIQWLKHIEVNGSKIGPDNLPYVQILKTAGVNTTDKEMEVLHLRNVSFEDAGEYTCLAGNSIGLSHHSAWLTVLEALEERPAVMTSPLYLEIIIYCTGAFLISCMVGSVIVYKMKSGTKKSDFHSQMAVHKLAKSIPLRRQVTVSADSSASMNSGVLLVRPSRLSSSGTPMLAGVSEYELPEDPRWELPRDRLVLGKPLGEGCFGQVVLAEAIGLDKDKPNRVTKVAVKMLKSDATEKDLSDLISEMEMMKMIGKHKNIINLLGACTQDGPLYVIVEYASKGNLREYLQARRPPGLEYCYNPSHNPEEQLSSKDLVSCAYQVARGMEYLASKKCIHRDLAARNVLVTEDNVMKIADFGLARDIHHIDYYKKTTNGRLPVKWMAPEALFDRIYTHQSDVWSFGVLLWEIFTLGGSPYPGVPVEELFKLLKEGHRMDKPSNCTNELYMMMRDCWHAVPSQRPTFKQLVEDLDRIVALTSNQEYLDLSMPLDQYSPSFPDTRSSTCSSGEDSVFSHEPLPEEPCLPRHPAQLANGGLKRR
Method in brief: (§1)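 KinEASE-TK HTRF readout: enzyme at 0.2 nM (FGFR1, FGFR3) preincubated 10 min at RT with 10-point 3-fold compound dilutions before TK-substrate/ATP start.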

[4] = molecular target: T2, FGFR2 (Homo sapiens, UniProt P21802); assay: FGFR2 Biochemical Caliper Assay (KinEASE-TK kit); conditions: 0.07 nM FGFR2; compound incubated with protein 10 min, reaction 45 min at RT; read-out: FGFR2 Cliper IC50
T2 construct: purchased Carna 08-134
T2 sequence (P21802 22-821): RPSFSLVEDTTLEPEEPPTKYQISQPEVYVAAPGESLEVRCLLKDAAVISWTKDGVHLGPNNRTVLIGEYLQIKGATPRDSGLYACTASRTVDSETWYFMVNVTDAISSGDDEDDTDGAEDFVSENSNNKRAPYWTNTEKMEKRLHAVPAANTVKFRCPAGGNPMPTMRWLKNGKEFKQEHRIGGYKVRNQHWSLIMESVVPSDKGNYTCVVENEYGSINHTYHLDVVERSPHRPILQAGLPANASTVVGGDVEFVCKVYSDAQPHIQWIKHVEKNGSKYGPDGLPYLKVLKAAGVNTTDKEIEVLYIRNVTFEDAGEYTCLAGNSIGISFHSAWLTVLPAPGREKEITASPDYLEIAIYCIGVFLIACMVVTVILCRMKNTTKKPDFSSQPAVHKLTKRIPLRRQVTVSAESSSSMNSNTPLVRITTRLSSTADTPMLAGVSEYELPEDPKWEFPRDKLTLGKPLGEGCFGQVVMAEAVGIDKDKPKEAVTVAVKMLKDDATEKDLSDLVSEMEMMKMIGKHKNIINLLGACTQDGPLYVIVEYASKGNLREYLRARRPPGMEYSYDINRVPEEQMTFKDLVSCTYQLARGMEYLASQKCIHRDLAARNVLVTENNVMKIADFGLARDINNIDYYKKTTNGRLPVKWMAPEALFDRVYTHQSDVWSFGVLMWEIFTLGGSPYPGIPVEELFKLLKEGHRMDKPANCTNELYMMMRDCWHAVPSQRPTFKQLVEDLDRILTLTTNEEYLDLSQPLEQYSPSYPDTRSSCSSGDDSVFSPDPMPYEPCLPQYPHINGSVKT

[5] = molecular target: T3, FGFR3 (Homo sapiens, UniProt P22607); assay: FGFR3 Biochemical Caliper Assay (KinEASE-TK kit); conditions: ratio FGFR3/FGFR2 of the biochemical assay
T3 construct: purchased Carna 08-135
T3 sequence (P22607 23-806): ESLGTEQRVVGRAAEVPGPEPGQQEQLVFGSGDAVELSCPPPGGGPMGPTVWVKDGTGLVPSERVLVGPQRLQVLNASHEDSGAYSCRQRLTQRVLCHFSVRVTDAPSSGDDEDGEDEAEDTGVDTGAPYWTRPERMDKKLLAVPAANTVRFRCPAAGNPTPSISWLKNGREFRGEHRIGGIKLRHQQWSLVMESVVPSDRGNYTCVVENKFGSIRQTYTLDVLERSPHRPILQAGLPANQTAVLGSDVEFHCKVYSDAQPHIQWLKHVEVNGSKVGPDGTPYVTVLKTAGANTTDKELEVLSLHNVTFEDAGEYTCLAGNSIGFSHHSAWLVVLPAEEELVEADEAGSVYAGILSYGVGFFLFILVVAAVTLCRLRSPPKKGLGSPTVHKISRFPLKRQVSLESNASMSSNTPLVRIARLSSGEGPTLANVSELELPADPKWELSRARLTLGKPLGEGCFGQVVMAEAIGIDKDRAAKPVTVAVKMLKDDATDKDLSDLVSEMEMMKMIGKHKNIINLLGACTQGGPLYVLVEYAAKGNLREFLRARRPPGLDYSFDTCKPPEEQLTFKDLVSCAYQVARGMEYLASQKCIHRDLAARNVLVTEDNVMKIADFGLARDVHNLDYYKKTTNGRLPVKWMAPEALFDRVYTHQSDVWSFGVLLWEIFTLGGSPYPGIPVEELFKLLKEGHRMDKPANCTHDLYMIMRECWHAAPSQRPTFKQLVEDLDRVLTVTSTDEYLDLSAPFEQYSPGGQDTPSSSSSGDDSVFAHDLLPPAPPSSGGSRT
Method in brief: as §1

[6] = Sprague-Dawley, PO 15 mg/kg (IV used for Clearance)
[7] = Sprague-Dawley, PO 15 mg/kg (IV used for Clearance), read-out: Cmax
[8] = PO 15 mg/kg (IV used for Clearance)

pIC50 [2]	pIC50 [4]	SMILES	Selectivity FGFR1/FGFR2 [3]	Selectivity FGFR3/FGFR2 [5]	also measured
–	–	C=C(F)C(=O)Nc1ccc(-c2nn3ncnc(N)c3c2-c2ccc(C(=O)NCC(F)(F)F)c(OC)c2)cc1 [Compound 71, 4-(4-amino-6-(4-(2-fluoroacrylamido)phenyl)pyrazolo[5,1-f][1,2,4]triazin-5-yl)-2-methoxy-N-(2,2,2-trifluoroethyl)benzamide]	–	–	clearance ([1]; Sprague-Dawley, IV 3 mg/kg): 18 mL/min/kg; AUC(0-inf) [1, 6]: 3230 ng·h/mL; half-life [1, 6]: 1.8 h; Cmax [1, 7]: 1300 ng/mL
–	–	C=C(F)C(=O)Nc1ccc(-c2nn3ncnc(N)c3c2-c2ccc(C(=O)NC3CC(F)(F)C3)c(OC)c2)cc1 [Compound 99]	–	–	clearance ([1]; Sprague-Dawley, IV 3 mg/kg): 18 mL/min/kg; AUC(0-inf) [1, 6]: 3080 ng·h/mL; half-life [1, 6]: 1.4 h; Cmax [1, 7]: 2360 ng/mL
–	–	C=C(F)C(=O)Nc1ccc(-c2nn3ncnc(N)c3c2-c2ccc(C(=O)NC34CC(C3)C4)c(OC)c2)cc1 [Compound 270, 4-(4-amino-6-(4-(2-fluoroacrylamido)phe-nyl)pyrazolo[5,1-f][1,2,4]triazin-5-yl)-N-(bicyclo[1.1.1]pentan-1-yl)-2-methoxybenzamide]	–	–	Cl ([1]; IV 3 mg/kg): 18 mL/min/kg; AUC0-∞ [1, 8]: 3384 ng·h/mL; Cmax [1, 8]: 978 ng/mL; T1/2 [1, 8]: 2 h
–	–	C=C(F)C(=O)Nc1ccc(-c2[nH]c3c(C#N)cnc(N)c3c2-c2ccc(C(=O)NCC(F)(F)F)c(OC)c2)cc1 [Compound 302]	–	–	clearance ([1]; Sprague-Dawley, IV 3 mg/kg): 3.4 mL/min/kg; AUC(0-inf) [1, 6]: 1510 ng·h/mL; half-life [1, 6]: 2.7 h; Cmax [1, 7]: 615 ng/mL
–	–	C=C(F)C(=O)Nc1ccc(-c2nn3ncnc(N)c3c2-c2ccc(C(=O)NCCC(F)(F)F)c(OC)c2)cc1 [Compound 310]	–	–	clearance ([1]; Sprague-Dawley, IV 3 mg/kg): 16 mL/min/kg; AUC(0-inf) [1, 6]: 2970 ng·h/mL; half-life [1, 6]: 1.1 h; Cmax [1, 7]: 1190 ng/mL
≥ 8.00	8.00 to 8.30	C=CC(=O)Nc1ccc(-c2nn3ncnc(N)c3c2-c2ccc(Oc3nccc(NC)n3)c(F)c2)cc1 [Compound 433, N-(4-(4-amino-5-(3-fluoro-4-((4-(methylamino)pyrimidin-2-yl)oxy)phenyl)pyrazolo[5,1-f][1,2,4]triazin-6-yl)phenyl) acrylamide]	A+ (Selectivity of FGFR1/FGFR2 greater or equal to 500)	A+ (Selectivity of FGFR3/FGFR2 greater or equal to 150)	–
≥ 8.00	> 8.30	C=C(F)C(=O)Nc1ccc(-c2nn3ncnc(N)c3c2-c2ccc(Oc3cccc(C)n3)c(F)c2)c(F)c1 [Compound 438, N-(4-(4-amino-5-(3-fluoro-4-((6-methylpyridin-2-yl)oxy)phenyl)pyrazolo [5,1-f][1,2,4]triazin-6-yl)-3-fluorophenyl)-2-fluoroacrylamide]	A+ (Selectivity of FGFR1/FGFR2 greater or equal to 500)	A+ (Selectivity of FGFR3/FGFR2 greater or equal to 150)	–
≥ 8.00	> 8.30	C=C(F)C(=O)Nc1ccc(-c2nn3ncnc(N)c3c2-c2ccc(Oc3cccc(C)n3)c(F)c2)c(C)c1 [Compound 439, N-(4-(4-amino-5-(3-fluoro-4-((6-methylpyridin-2-yl)oxy)phenyl)pyrazolo [5,1-f][1,2,4]triazin-6-yl)-3-methylphenyl)-2-fluoroacrylamide]	C (Selectivity of FGFR1/FGFR2 less than 200 but greater than or equal to 100)	B (Selectivity of FGFR3/FGFR2 less than 100 but greater than or equal to 25)	–
≥ 8.00	> 8.30	C=CC(=O)Nc1ccc(-c2c(-c3ccc(Oc4ncccn4)c(F)c3)c3c(N)ncc(C#N)c3n2C)cc1 [Compound 443, N-(4-(4-amino-7-cyano-3-(3-fluoro-4-(pyrimidin-2-yloxy)phenyl)-1-methyl-1H-pyrrolo[3,2-c]pyridin-2-yl)phenyl)acrylamide]	C (Selectivity of FGFR1/FGFR2 less than 200 but greater than or equal to 100)	B (Selectivity of FGFR3/FGFR2 less than 100 but greater than or equal to 25)	–
≥ 8.00	< 8.00	C=C(C)C(=O)Nc1ccc(-c2nn3ncnc(N)c3c2-c2ccc(Oc3nccc(C)n3)c(F)c2)c(C)c1 [Compound 450]	A+ (Selectivity of FGFR1/FGFR2 greater or equal to 500)	B (Selectivity of FGFR3/FGFR2 less than 100 but greater than or equal to 25)	–
≥ 8.00	> 8.30	C=C(C)C(=O)Nc1ccc(-c2nn3ncnc(N)c3c2-c2ccc(Oc3nccc(C)n3)c(F)c2)c(Cl)c1 [Compound 451]	A (Selectivity of FGFR1/FGFR2 less than 500 but greater than or equal to 300)	B (Selectivity of FGFR3/FGFR2 less than 100 but greater than or equal to 25)	–
≥ 8.00	< 8.00	C=C(C)C(=O)Nc1ccc(-c2c(-c3ccc(Oc4nccc(C)n4)cc3)c3c(N)ncc(C#N)c3n2C)c(F)c1 [Compound 467, N-(4-(4-amino-7-cyano-1-methyl-3-(4-((4-methylpyrimidin-2-yl)oxy)phenyl)-1H-pyrrolo[3,2-c]pyridin-2-yl)-3-fluorophenyl) methacrylamide]	A+ (Selectivity of FGFR1/FGFR2 greater or equal to 500)	A+ (Selectivity of FGFR3/FGFR2 greater or equal to 150)	–
≥ 8.00	< 8.00	C=C(C)C(=O)Nc1ccc(-c2c(-c3ccc(Oc4cccc(C)n4)cc3)c3c(N)ncc(C#N)c3n2C)c(F)c1 [Compound 468, N-(4-(4-amino-7-cyano-1-methyl-3-(4-((6-methylpyridin-2-yl)oxy)phenyl)-1H-pyrrolo[3,2-c]pyridin-2-yl)-3-fluorophenyl) methacrylamide]	A+ (Selectivity of FGFR1/FGFR2 greater or equal to 500)	A+ (Selectivity of FGFR3/FGFR2 greater or equal to 150)	–
≥ 8.00	> 8.30	C=C(C)C(=O)Nc1ccc(-c2c(-c3ccc(Oc4nccc(C)n4)c(F)c3)c3c(N)ncc(C#N)c3n2C)c(Cl)c1 [Compound 473, N-(4-(4-amino-7-cyano-3-(3-fluoro-4-((4-methylpyrimidin-2-yl)oxy)phenyl)-1-methyl-1H-pyrrolo[3,2-c]pyridin-2-yl)-3-chlorophenyl)methacrylamide]	A+ (Selectivity of FGFR1/FGFR2 greater or equal to 500)	A+ (Selectivity of FGFR3/FGFR2 greater or equal to 150)	–
≥ 8.00	8.00 to 8.30	C=C(C)C(=O)Nc1ccc(-c2c(-c3ccc(Oc4nccc(C)n4)cc3)c3c(N)ncc(C#N)c3n2C)c(Cl)c1 [Compound 474, N-(4-(4-amino-7-cyano-1-methyl-3-(4-((4-methylpyrimidin-2-yl)oxy)phenyl)-1H-pyrrolo[3,2-c]pyridin-2-yl)-3-chlorophenyl)methacrylamide]	A+ (Selectivity of FGFR1/FGFR2 greater or equal to 500)	A+ (Selectivity of FGFR3/FGFR2 greater or equal to 150)	–
≥ 8.00	< 8.00	C=C(C)C(=O)Nc1ccc(-c2c(-c3ccc(Oc4nccc(C)n4)cc3)c3c(N)ncc(C#N)c3n2C)c(C)c1 [Compound 488, N-(4-(4-amino-7-cyano-1-methyl-3-(4-((4-methylpyrimidin-2-yl)oxy)phenyl)-1H-pyrrolo[3,2-c]pyridin-2-yl)-3-methylphenyl)methacrylamide]	A+ (Selectivity of FGFR1/FGFR2 greater or equal to 500)	A+ (Selectivity of FGFR3/FGFR2 greater or equal to 150)	–
≥ 8.00	> 8.30	C=CC(=O)Nc1ccc(-c2c(-c3cc(F)c(Oc4ncc(F)c(C)n4)c(F)c3)c3c(N)ncc(C#N)c3n2C)cc1 [Compound 497]	A+ (Selectivity of FGFR1/FGFR2 greater or equal to 500)	A+ (Selectivity of FGFR3/FGFR2 greater or equal to 150)	–
≥ 8.00	< 8.00	C=C(C)C(=O)Nc1ccc(-c2c(-c3ccc(Oc4nccc(C)n4)c(F)c3)c3c(N)ncc(C#N)c3n2C)c(C)c1 [Compound 501, N-(4-(4-amino-7-cyano-3-(3-fluoro-4-((4-methylpyrimidin-2-yl)oxy)phenyl)-1-methyl-1H-pyrrolo[3,2-c]pyridin-2-yl)-3-methylphenyl)methacrylamide]	A+ (Selectivity of FGFR1/FGFR2 greater or equal to 500)	A+ (Selectivity of FGFR3/FGFR2 greater or equal to 150)	–

SMILES	pIC50 [2]	pIC50 [4]	Selectivity FGFR1/FGFR2 [3]	Selectivity FGFR3/FGFR2 [5]	also measured
C=C(C)C(=O)Nc1ccc(-c2c(-c3ccc(Oc4nccc(C)n4)c(F)c3)c3c(N)ncnc3n2C)cc1 [Compound 0, N-(4-(4-amino-5-(3-fluoro-4-((4-methylpyrimidin-2-yl)oxy)phenyl)-7-methyl-7H-pyrrolo[2,3-d]pyrimidin-6-yl)phenyl)methacrylamide, reference compound]	≥ 8.00	–	–	–	clearance ([1]; Sprague-Dawley, IV 3 mg/kg): 49 mL/min/kg; AUC(0-inf) [1, 6]: 614 ng·h/mL; half-life [1, 6]: 1.5 h; Cmax [1, 7]: 244 ng/mL
